# Reference: patent US20260167656A1, “PHOSPHORAMIDATE COMPOUNDS AND USES THEREOF” (ALLORION THERAPEUTICS INC, priority 2022, published 2026)
# Assays:
# [1] = system: non-small cell lung cancer cell line H460; assay: In vitro human cancer cell line cytotoxicity (proliferation) assay in H460, CellTiter-Glo, 72 hours; type: cell-based; conditions: DMSO condition (no AKR1C3 inhibitor), read-out: CTG H460: Avg IC50 (nM) [Assay Condition: DMSO]
# In short: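 IC50s in nM come from CellTiter-Glo viability read after 72 h of compound exposure. Compounds went in from 10 mM DMSO stocks onto H460 cells, which had been plated at 3×10^3 per well and grown 24 h beforehand at 37 °C, 5% CO2.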
# [2] = system: non-small cell lung cancer cell line H460; assay: H460 proliferation assay in the presence of 3 uM ASP9521 (AKR1C3 specific inhibitor); type: cell-based, human; conditions: H460 cells, CellTiter-Glo, 72 hours, in the presence of 3 uM ASP9521 added 4 hours prior to compounds; read-out: CTG H460: Avg IC50 (nM) [Assay Condition: ASP9521]
# In short: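 AKR1C3 blocked with 3 uM ASP9521 given 4 h ahead of test compounds. H460 cells, plated 24 h earlier, were then treated for 72 h at 37 °C in 5% CO2. CellTiter-Glo luminescence gave viability.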
# [3] = Homo sapiens, NCI-H460, 72 h, H460 cells
Compound,"IC50 [1, 3] [nM]",IC50 [2] [nM],IC50 ([1]; H460 cells) [nM],"IC50 ([1]; Homo sapiens, NCI-H460, H460 cells) [nM]"
Cn1cnc2ccc(Oc3cc4c(cc3[N+](=O)[O-])CCC4OP(=O)(N3CC3)N3CC3)cc2c1=O (stereo not shown) [Example 194],10 to 50,1290,–,–
CC(C)Oc1cc(Oc2c([N+](=O)[O-])ccc3c2CCC3OP(=O)(N2CC2)N2CC2)ccc1F (stereo not shown) [Example 487],–,1010,< 10,–
"O=[N+]([O-])c1cc2c(cc1Oc1cccc(-c3ccccc3)c1)C(OP(=O)(N1CC1)N1CC1)CC2 (single isomer, unassigned) [Example 168]",< 10,755,–,–
O=[N+]([O-])c1ccc2c(c1Oc1cncc(-c3ccccc3)c1)CCC2OP(=O)(N1CC1)N1CC1 (stereo not shown) [Example 311],< 10,485,–,–
O=[N+]([O-])c1cc2c(cc1Oc1ccc(-c3ccc(F)cc3)c(F)c1)C(OP(=O)(N1CC1)N1CC1)CC2 (stereo not shown) [Example 514],–,993,< 10,–
O=[N+]([O-])c1ccc2c(c1Oc1cccc(OCC3CC3)c1)CC[C@@H]2OP(=O)(N1CC1)N1CC1 [Example 481],< 10,1120,–,–
"O=C1c2cc(Oc3cc4c(cc3[N+](=O)[O-])OCCC4OP(=O)(N3CC3)N3CC3)ccc2CN1C1CC1 (single isomer, unassigned) [Example 204]",–,1550,10 to 50,–
O=C(NC1CC1)c1ccc(Oc2c([N+](=O)[O-])ccc3c2CCC3OP(=O)(N2CC2)N2CC2)cc1 (stereo not shown) [Example 73],–,943,< 10,–
O=C(c1cc(Oc2c([N+](=O)[O-])ccc3c2CC[C@@H]3OP(=O)(N2CC2)N2CC2)ccc1F)N1CCC1 [Example 257],–,1810,< 10,–
Cn1cnc2cc(Oc3c([N+](=O)[O-])ccc4c3CCC4OP(=O)(N3CC3)N3CC3)ccc21 (stereo not shown) [Example 390],–,1410,–,< 10
Cn1cc(Oc2cc(Oc3c([N+](=O)[O-])ccc4c3CC[C@@H]4OP(=O)(N3CC3)N3CC3)ccc2F)cn1 [Example 497],< 10,1010,–,–
Cc1cc2cc(Oc3c([N+](=O)[O-])ccc4c3CC[C@H]4OP(=O)(N3CC3)N3CC3)ccc2n1C [Example 391],< 10,1810,–,–
O=[N+]([O-])c1ccc2c(c1Oc1cccc(OC3COC3)c1)CCC2OP(=O)(N1CC1)N1CC1 (racemic) [Example 465],–,705,< 10,–
O=[N+]([O-])c1cc2c(cc1Oc1ccc(-c3ccccn3)cc1)C(OP(=O)(N1CC1)N1CC1)CC2 (stereo not shown) [Example 517],–,2050,< 10,–
O=[N+]([O-])c1ccc2c(c1Oc1cccc(OCC3CC3)c1)CCC2OP(=O)(N1CC1)N1CC1 (stereo not shown) [Example 482],–,1340,< 10,–
O=[N+]([O-])c1ccc2c(c1Oc1ccc3nccn3c1)CC[C@H]2OP(=O)(N1CC1)N1CC1 [Example 383],10 to 50,4240,–,–
O=C1c2ccc(Oc3c([N+](=O)[O-])ccc4c3CC[C@@H]4OP(=O)(N3CC3)N3CC3)cc2CN1C1CC1 [Example 379],< 10,447,–,–
O=[N+]([O-])c1ccc2c(c1Oc1ccc(-c3ccc(Cl)cc3)cc1)CCC2OP(=O)(N1CC1)N1CC1 (stereo not shown) [Example 45],–,5550,10 to 50,–
CC(C)C1CN1P(=O)(OCc1ccc([N+](=O)[O-])c(Oc2cccc(C(=O)N(C)C)c2)c1)N1CC1C(C)C (stereo not shown) [Example 11],≥ 100,2050,–,–
CN(C)C(=O)c1cccc(Oc2cc3c(cc2[N+](=O)[O-])CCC3OP(=O)(N2CC2)N2CC2)c1 (stereo not shown) [Example 146],< 10,453,–,–
CC(OP(=O)(N1CC1)N1CC1)c1ccc([N+](=O)[O-])c(Cn2ccc(=O)cc2)c1 (stereo not shown) [Example 4],≥ 100,> 10000,–,–
O=[N+]([O-])c1ccc2c(c1Oc1cccc(OC(F)F)c1)CCC2OP(=O)(N1CC1)N1CC1 (racemic) [Example 454],–,559,< 10,–
"CN(C)C(=O)c1ccc(Oc2c([N+](=O)[O-])ccc3c2OCCC3OP(=O)(N2CC2)N2CC2)cc1 (single isomer, unassigned) [Example 131]",–,314,< 10,–
C[C@@H]1CN(C(=O)c2cccc(Oc3c([N+](=O)[O-])ccc4c3CC[C@H]4OP(=O)(N3CC3)N3CC3)c2)C[C@H](C)O1 [Example 248],–,1650,< 10,–
"CNC(=O)c1ccc(Oc2cc3c(cc2[N+](=O)[O-])CCC3OP(=O)(N2CC2)N2CC2)cc1 (single isomer, unassigned) [Example 150]",< 10,297,–,–
O=[N+]([O-])c1ccc2c(c1Oc1cc(F)cc(-c3ncc(F)cn3)c1)CC[C@@H]2OP(=O)(N1CC1)N1CC1 [Example 364],10 to 50,4030,–,–
